The text below walks through data of paper PMC12114952, “Design, Synthesis, Anticancer Evaluation and Molecular Docking of Pyrimidine, Pyrido[4,3-d]pyrimidine and 5,6,7,8-Tetrahydropyrido[3,4-d]pyrimidine Derivatives as Novel KRAS-G12D Inhibitors and PROTACs” (Pharmaceuticals, 2025).

The subject of experiment [1] is ASPC-1. Put plainly: Cell proliferation assay, ASPC-1 cells. It counts as cell-based. As to conditions: Homo sapiens, ASPC1, KRAS-G12D, antiproliferative. How it is done:
(§1) After we obtained 26a and 26b, cell proliferation experiments were conducted using cell lines carrying KRAS-G12D mutations, and the results are shown in Table 2. […] In the future, more types of linkers can be designed to adjust the lipophilic–hydrophilic balance coefficient of the molecule to optimize its membrane permeability and protein degradation ability. In addition, it should be acknowledged that only two cancer cell lines were selected for testing in this experiment, which is insufficient to comprehensively evaluate these PROTACs. This is also one of the limitations of this experiment.

The next experiment relates to Panc1 (G12D). As to the kind of experiment: CCK-8 cell proliferation assay, Panc1 cells. It counts as cell-based, human. As to conditions: for IC50: Homo sapiens, PANC-1, Panc1 cells, KRAS-G12D, CCK-8; for selectivity index (SI): Panc1 (G12D) over wild-type cells, fold. An excerpt:
(§2) It has been reported that Panc1 is a KRAS-G12D-mutated human pancreatic cell and that A549 is a KRAS WT cell; meanwhile, HCT116 cells carry the KRAS-G13D mutation. Therefore, we used these cell lines to analyze the compounds’ anticancer activity and selectivity.
(In general: Tetrazolium assays rely on reduction of a dye to a coloured formazan, in cell work by metabolically active cells.)

A further experiment has as its system A549 (WT). As to the kind of experiment: CCK-8 cell proliferation assay, A549 cells. It counts as cell-based. The settings on record: Homo sapiens, KRAS wild-type.
Excerpt: as §2

Another experiment concerns HCT116 (G13D). Put plainly: CCK-8 cell proliferation assay, HCT116 cells. Format: cell-based. The settings on record: Homo sapiens, HCT-116, KRAS-G13D.
Excerpt: as §2

The test system of another experiment is CT26. Set-up: method as in PMID 35276423. The settings on record: Figure 1; cited from earlier work.
The next experiment has as its system Panc-1. As to conditions: Figure 1; cited from earlier work.
For a further experiment, the system named is tumor. Set-up: method as in PMID 38197882. As to conditions: subcutaneous administration once a day for 22 days; cited from earlier work.
The test system of experiment [2] is AsPc-1. As to conditions: Figure 1, cited from earlier work.
Another experiment has as its system AGS. As to conditions: Figure 1; cited from earlier work.
A further experiment has as its system KC. Set-up: method as in PMID 35075146. As to conditions: Figure 1; cited from earlier work.
The next experiment deals with AGS (G12D). Put plainly: CCK-8 cell proliferation assay, AGS cells. Format: cell-based. The settings on record: Homo sapiens, KRAS-G12D, antiproliferative. How it is done: as §2, §1
The target in the next experiment is KRAS-G12D (Homo sapiens, UniProt P01116, G12D). As to the kind of experiment: KRAS-G12D enzyme inhibition assay (GTPase activity assay).
The test system of a further experiment is Panc 04.03. The settings on record: Figure 1; cited from earlier work.
The mark [3] stands for this setting: KRAS-G12D inhibition IC50, enzymatic inhibition.

Each structure is given as a SMILES string. Read-outs that look alike come from different tables or passages of the source.

Sequence of KRAS-G12D (P01116 1-188 isoform P01116-2 G12D): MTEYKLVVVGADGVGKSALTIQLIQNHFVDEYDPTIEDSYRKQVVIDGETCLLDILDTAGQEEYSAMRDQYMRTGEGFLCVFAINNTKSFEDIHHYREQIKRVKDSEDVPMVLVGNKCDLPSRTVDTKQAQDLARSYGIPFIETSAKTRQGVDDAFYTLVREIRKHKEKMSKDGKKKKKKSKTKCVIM

As a reminder, the IC50 is the concentration that gives 50% inhibition. With `C#Cc1c(F)ccc2cc(O)cc(-c3ncc4c(N5C[C@H]6CC[C@@H](C5)N6)nc(N5CCCN(CCCCCC(=O)N[C@H](C(=O)N6C[C@H](O)C[C@H]6C(=O)N[C@@H](C)c6ccc(-c7scnc7C)cc6)C(C)(C)C)CC5)nc4c3F)c12` [Compound 26b, (2S,4R)-1-((S)-2-(6-(4-(4-((1R,5S)-3,8-Diazabicyclo[3.2.1]octan-3-yl)-7-(8-ethynyl-7-fluoro-3-hydroxynaphthalen-1-yl)-8-fluoropyrido[4,3-d]pyrimidin-2-yl)-1,4-diazepan-1-yl)hexanamido)-3,3-dimethylbutanoyl)-4-hydroxy-N-((S)-1-(4-(4-methylthiazol-5-yl)phenyl)ethyl)pyrrolidine-2-carboxamide], 5.09 ± 0.89 µM corresponded to half-maximal inhibition in the experiment with ASPC-1 [1] (IC50).

Take `CN1CCCN(c2nc3c(c(N4CCNCC4CO)n2)CCN(C(=O)c2ccc(F)c4ccccc24)C3)CC1` (centres unmarked) [Compound 10d, (4-Fluoronaphthalen-1-yl)(4-(2-(hydroxymethyl)piperazin-1-yl)-2-(4-methyl-1,4-diazepan-1-yl)-5,8-dihydropyrido[3,4-d]pyrimidin-7(6H)-yl)methanone]: the figures for the concentration for half-maximal inhibition (IC50) in the experiment with Panc1 (G12D), with A549 (WT) and in the experiment with HCT116 (G13D) were > 20 µM, 7.48 ± 0.19 µM and > 20 µM, respectively.

On to `COc1cccc(C(F)(F)F)c1-c1cc2c(N3CC4CCC(C3)N4)ncnc2s1` [KD-8], for which the IC50 in the experiment with CT26 was 2000 nM; in the experiment on Panc-1, 2300 nM.

Take `Cc1cccc2cccc(N3CCc4c(nc(N5CCCN(C)CC5)nc4N4C[C@H]5CC[C@@H](C4)N5)C3)c12` [Compound 10i, 4-((1R,5S)-3,8-Diazabicyclo[3.2.1]octan-3-yl)-2-(4-methyl-1,4-diazepan-1-yl)-7-(8-methylnaphthalen-1-yl)-5,6,7,8-tetrahydropyrido[3,4-d]pyrimidine]: the results for the IC50 in the experiment on Panc1 (G12D), in the experiment with A549 (WT) and with HCT116 (G13D) were 3.92 ± 0.58 µM, 5.5 ± 1.35 µM and 4.51 ± 0.21 µM, respectively.

`CCc1c(F)ccc2cc(O)cc(-c3ncc4c(N5CC6CCC(C5)N6)nc(OC[C@@H]5CCCN5CCCCOCC(=O)N[C@H](C(=O)N5C[C@H](O)C[C@H]5C(=O)N[C@@H](C)c5ccc(-c6scnc6C)cc5)C(C)(C)C)nc4c3F)c12` [Compound 8o]: the tumor inhibition rate in the experiment on tumor is reported as 68.6%. For the same molecule, the IC50 was 60 nM in the experiment on AsPc-1 [2] and 31 nM in the experiment with AGS.

Take `Cc1cccc2cccc(N3CCc4c(nc(OC[C@@H]5CCCN5C)nc4N4CC5CCC(C4)N5)C3)c12` [TH-Z835]: the IC50 with Panc-1 was < 2000 nM; in the experiment on KC it was < 500 nM.

In the case of `CN1CCCN(c2nc3c(c(N4CCNCC4CO)n2)CCN(Cc2ccccc2)C3)CC1` (centres unmarked) [Compound 10h, (1-(7-Benzyl-2-(4-methyl-1,4-diazepan-1-yl)-5,6,7,8-tetrahydropyrido [3,4-d]pyrimidin-4-yl)piperazin-2-yl)methanol], the IC50 in the experiment with Panc1 (G12D), with A549 (WT) and in the experiment with HCT116 (G13D) was > 20 µM each time.

Regarding `CCN1CCC[C@H]1CNc1nc(NC(=O)c2cccc3ccccc23)cc(N2CCNCC2)n1` [Compound 10j, (S)-N-(2-(((1-Ethylpyrrolidin-2-yl)methyl)amino)-6-(piperazin-1-yl)pyrimidin-4-yl)-1-naphthamide], the IC50 was 5.96 ± 0.64 µM in the experiment on Panc1 (G12D), > 20 µM in the experiment with A549 (WT) and 14.5 ± 1.22 µM with HCT116 (G13D).

Take `CN1CCCN(c2nc3c(c(N4[C@@H]5CC[C@H]4CNC5)n2)CCN(C(=O)c2ccc(F)c4ccccc24)C3)CC1` [Compound 10c, (4-((1R,5S)-3,8-Diazabicyclo[3.2.1]octan-8-yl)-2-(4-methyl-1,4-diazepan-1-yl)-5,8-dihydropyrido[3,4-d]pyrimidin-7(6H)-yl)(4-fluoronaphthalen-1-yl)methanone]: the 50% inhibitory concentration (IC50) in the experiment on Panc1 (G12D) was 1.4 ± 0.19 µM; in the experiment on A549 (WT) it was 6.88 ± 0.19 µM; with AGS (G12D), 3.4 ± 0.25 µM; in the experiment with HCT116 (G13D) it was 5.13 ± 0.4 µM; against KRAS-G12D (setting [3]) it was > 10000 nM. Moreover, the “selectivity index (SI)” value in the experiment on Panc1 (G12D) is on record as 4.9.

With `C#Cc1c(F)ccc2cc(O)cc(-c3ncc4c(N5C[C@H]6CC[C@@H](C5)N6)nc(N5CCCN(C)CC5)nc4c3F)c12` [Compound 10k, 4-(4-((1R,5S)-3,8-Diazabicyclo[3.2.1]octan-3-yl)-8-fluoro-2-(4-methyl-1,4-diazepan-1-yl)pyrido[4,3-d]pyrimidin-7-yl)-5-ethynyl-6-fluoronaphthalen-2-ol], the IC50 with Panc1 (G12D) stood at 11.5 ± 0.41 µM; with A549 (WT), 14.2 ± 2.15 µM; in the experiment with AGS (G12D), 2.22 ± 0.53 µM; in the experiment on HCT116 (G13D), 7.87 ± 0.16 µM; on KRAS-G12D (setting [3]) it was 9 nM; on KRAS-G12D (KRAS-G12D inhibitory activity IC50 (nM), Table S1), 9.3 nM.

Consider `N#Cc1c(N)sc2c(F)ccc(-c3c(C(F)(F)F)cc4c(N5CC6CCC(C5)N6)nc(OC[C@@]56CCCN5C[C@H](F)C6)nc4c3F)c12` [ERAS-5024], for which the IC50 in the experiment on AsPc-1 [2] (3D, CTG) is 4 nM.

Consider `CN1CCCN(c2nc3c(c(N4CCCN(C)CC4)n2)CCN(C(=O)c2ccc(F)c4ccccc24)C3)CC1` [Compound 10f, (2,4-Bis(4-methyl-1,4-diazepan-1-yl)-5,8-dihydropyrido[3,4-d]pyrimidin-7(6H)-yl)(4-fluoronaphthalen-1-yl)methanone], for which the IC50 was 3.48 ± 0.22 µM in the experiment with Panc1 (G12D), > 20 µM in the experiment with A549 (WT) and 10.1 ± 0.31 µM in the experiment on HCT116 (G13D). The “selectivity index (SI)” value in the experiment with Panc1 (G12D) is recorded as 5.7.

In the case of `C#Cc1c(F)ccc2cc(O)cc(-c3ncc4c(N5CC6CCC(C5)N6)nc(OC[C@@]56CCCN5C[C@H](F)C6)nc4c3F)c12` [MRTX1133, reference compound], the IC50 is 0.39 ± 0.05 µM in the experiment on Panc1 (G12D); 12.7 ± 0.98 µM in the experiment with A549 (WT); 1.46 ± 0.18 µM in the experiment with AGS (G12D); 12.6 ± 0.47 µM in the experiment with HCT116 (G13D); < 0.1 µM with ASPC-1 [1]; 10 nM in the experiment on Panc 04.03. In addition, the IC50 in the experiment on AGS was 6 nM. In the experiment with tumor, the tumor inhibition rate is on record as 89.1%.

`O=C(c1ccc(F)c2ccccc12)N1CCc2c(nc(N3CCN4CCC3CC4)nc2N2CCN3CCC2CC3)C1` [Compound 10g, (2,4-Di(1,4-diazabicyclo[3.2.2]nonan-4-yl)-5,8-dihydropyrido[3,4-d]pyrimidin-7(6H)-yl)(4-fluoronaphthalen-1-yl)methanone]: the values for the IC50 in the experiment with Panc1 (G12D), with A549 (WT) and in the experiment with HCT116 (G13D) were 5.1 ± 0.32 µM, 12.9 ± 0.38 µM and 7.12 ± 0.45 µM, respectively.

For the molecule `CN1CCCN(c2nc3c(c(N4CC(N)C4)n2)CCN(C(=O)c2ccc(F)c4ccccc24)C3)CC1` [Compound 10a, (4-(3-Aminoazetidin-1-yl)-2-(4-methyl-1,4-diazepan-1-yl)-5,8-dihydropyrido[3,4-d]pyrimidin-7(6H)-yl)(4-fluoronaphthalen-1-yl)methanone], the IC50 in the experiment on Panc1 (G12D) was 6.17 ± 0.2 µM; in the experiment with A549 (WT), > 20 µM; in the experiment on HCT116 (G13D) it was 12.6 ± 1.01 µM.

Consider `CN1CCCN(c2nc3c(c(N4CCNCC4)n2)CCN(C(=O)c2ccc(F)c4ccccc24)C3)CC1` [Compound 10b, (4-Fluoronaphthalen-1-yl)(2-(4-methyl-1,4-diazepan-1-yl)-4-(piperazin-1-yl)-5,8-dihydropyrido[3,4-d]pyrimidin-7(6H)-yl)methanone], for which the IC50 in the experiment with Panc1 (G12D) is 5.87 ± 0.37 µM; in the experiment with A549 (WT) it was 7.89 ± 0.17 µM; with HCT116 (G13D) it was 11.2 ± 0.94 µM.

`CN1CCCN(c2nc3c(c(N4CCNCC4(C)C)n2)CCN(C(=O)c2ccc(F)c4ccccc24)C3)CC1` [Compound 10e, (4-(2,2-Dimethylpiperazin-1-yl)-2-(4-methyl-1,4-diazepan-1-yl)-5,8-dihydropyrido[3,4-d]pyrimidin-7(6H)-yl)(4-fluoronaphthalen-1-yl)methanone]: the IC50 was > 20 µM with Panc1 (G12D), 12.8 ± 1.84 µM in the experiment with A549 (WT) and 11.9 ± 1.59 µM in the experiment on HCT116 (G13D).

In the case of `C#Cc1c(F)ccc2cc(O)cc(-c3ncc4c(N5C[C@H]6CC[C@@H](C5)N6)nc(N5CCCN(CCOCCNc6cccc7c6C(=O)N(C6CCC(=O)NC6=O)C7=O)CC5)nc4c3F)c12` (stereo partly drawn) [Compound 26a, 4-((2-(2-(4-(4-((1R,5S)-3,8-Diazabicyclo[3.2.1]octan-3-yl)-7-(8-ethynyl-7-fluoro-3-hydroxynaphthalen-1-yl)-8-fluoropyrido[4,3-d]pyrimidin-2-yl)-1,4-diazepan-1-yl)ethoxy)ethyl)amino)-2-(2,6-dioxopiperidin-3-yl)isoindoline-1,3-dione], the IC50 in the experiment on AGS (G12D) was ~3 µM; with ASPC-1 [1] it was > 10 µM.
